# “And” between values parts separate entries of the source, which are not always exact repeats. Equal entries are not always repeated.
# Experiments:
# Rattus norvegicus [1] = organism: Rattus norvegicus; assay: %binding inhibition in rat ex vivo assay after three hours; format: functional; design: concentration or dose not given beside the values
# Rattus norvegicus [2] = organism: Rattus norvegicus; assay: %binding inhibition in rat ex vivo assay after one hour; format: functional; design: concentration or dose not given beside the values
# [3] = biological target: T1, Corticotropin-releasing factor receptor 1 (Homo sapiens, UniProt P34998); assay: Displacement of [125I]-tyrosine-ovine-CRF from human Corticotropin releasing factor receptor 1
# T1 sequence (P34998 whole entry): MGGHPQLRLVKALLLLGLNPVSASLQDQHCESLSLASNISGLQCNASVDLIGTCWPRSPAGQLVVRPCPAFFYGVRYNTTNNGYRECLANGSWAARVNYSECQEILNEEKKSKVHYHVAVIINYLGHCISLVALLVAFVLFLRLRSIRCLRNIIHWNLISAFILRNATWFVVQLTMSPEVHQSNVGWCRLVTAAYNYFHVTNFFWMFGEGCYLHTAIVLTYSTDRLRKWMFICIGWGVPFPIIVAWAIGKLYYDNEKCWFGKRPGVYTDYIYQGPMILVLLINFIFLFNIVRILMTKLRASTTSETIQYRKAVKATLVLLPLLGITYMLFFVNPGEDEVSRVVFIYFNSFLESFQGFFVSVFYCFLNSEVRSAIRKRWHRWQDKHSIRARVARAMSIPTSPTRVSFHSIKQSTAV
# Canis familiaris [4] = assay: AUCT(nM.h) value was determined in dogs after intravenous dose of 1 mg/kg; format: ADME, organism-based, Canis lupus familiaris, Plasma; design: dose 1 mg/kg, route intravenous; conditions: dog, in vivo
# Canis familiaris [5] = assay: AUC(nM.h) value was determined in dogs after po dose of 1 mg/kg; format: ADME, organism-based, Canis lupus familiaris, Plasma; design: dose 1 mg/kg, route oral; conditions: dog, in vivo
# [6] = C5min (nM) value was determined in rats after intravenous dose of 5 mg/kg; format: ADME, organism-based; design: dose 5 mg/kg, route intravenous; conditions: rat, in vivo, read-out: C5 min
# Rattus norvegicus [7] = assay: (§1) Tested for situational anxiety in rats by measuring the latency exit from a chamber after po administration; format: functional
# [8] = t1/2 (h) value of was determined in rats after intravenous dose of 5 mg/kg; format: ADME, organism-based; design: dose 5 mg/kg, route intravenous; conditions: rat, in vivo
# Rattus norvegicus [9] = assay: CL(L/h/kg) value was determined in rats after intravenous dose of 5 mg/kg; format: ADME, organism-based; design: dose 5 mg/kg, route intravenous; conditions: in vivo
# [10] = Vss(L/kg)value was determined in dogs after intravenous dose of 1 mg/kg; format: ADME, organism-based, Canis lupus familiaris; design: dose 1 mg/kg, route intravenous; conditions: dog, in vivo, read-out: Vss
# Canis familiaris [11] = assay: AUC(nM.h) value was determined in dogs after intravenous dose of 1 mg/kg; format: ADME, organism-based, Canis lupus familiaris, Plasma; design: dose 1 mg/kg, route intravenous; conditions: dog, in vivo
# Rattus norvegicus [12] = assay: AUCT(nM.h) value was determined in rats after po dose of 5 mg/kg; format: ADME, organism-based, Plasma; design: dose 5 mg/kg, route oral; conditions: in vivo
# [13] = Cmax(nM)value was determined in rats after po dose of 5 mg/kg; format: ADME, organism-based; design: dose 5 mg/kg, route oral; conditions: rat, in vivo
# [14] = t1/2 (h) value was determined in dogs after intravenous dose of 1 mg/kg; format: ADME, organism-based, Canis lupus familiaris; design: dose 1 mg/kg, route intravenous; conditions: dog, in vivo
# Rattus norvegicus [15] = assay: as §1; format: functional; remark: listed apart in the source
# [16] = t1/2 (h) value was determined in dogs after po dose of 1 mg/kg; format: ADME, organism-based, Canis lupus familiaris; design: dose 1 mg/kg, route oral; conditions: dog, in vivo
# [17] = Tmax(h)value was determined in rats after po dose of 5 mg/kg; format: ADME, organism-based; design: dose 5 mg/kg, route oral; conditions: rat, in vivo
# Rattus norvegicus [18] = assay: AUC(nM.h) value was determined in rats after po dose of 5 mg/kg; format: ADME, organism-based, Plasma; design: dose 5 mg/kg, route oral; conditions: in vivo
# Canis familiaris [19] = assay: AUCT(nM.h) value was determined in dogs after po dose of 1 mg/kg; format: ADME, organism-based, Canis lupus familiaris, Plasma; design: dose 1 mg/kg, route oral; conditions: dog, in vivo
# [20] = %bioavail value was determined in rats after po dose of 5 mg/kg; format: ADME, organism-based; design: dose 5 mg/kg, route oral; conditions: rat, in vivo, read-out: Bioavailabiility
# [21] = t1/2 (h) value was determined in rats after po dose of 5 mg/kg; format: ADME, organism-based; design: dose 5 mg/kg, route oral; conditions: rat, in vivo
# [22] = C5min (nM) value was determined in dogs after intravenous dose of 1 mg/kg; format: ADME, organism-based, Canis lupus familiaris; design: dose 1 mg/kg, route intravenous; conditions: dog, in vivo, read-out: C5 min
# Rattus norvegicus [23] = assay: as §1; format: functional; remark: listed apart in the source
# [24] = Vss(L/kg) value was determined in rats after intravenous dose of 5 mg/kg; format: ADME, organism-based; design: dose 5 mg/kg, route intravenous; conditions: rat, in vivo, read-out: Vss
# [25] = CL (L/h/kg) value was determined in dogs after intravenous dose of 1 mg/kg; format: ADME, organism-based, Canis lupus familiaris; design: dose 1 mg/kg, route intravenous; conditions: dog, in vivo, read-out: Vss (converted)
# [26] = Tmax(h)value was determined in dogs after po dose of 1 mg/kg; format: ADME, organism-based, Canis lupus familiaris; design: dose 1 mg/kg, route oral; conditions: dog, in vivo
# [27] = % bioavailability value was determined in dogs after po dose of 1 mg/kg; format: ADME, organism-based, Canis lupus familiaris; conditions: dog, in vivo, read-out: Bioavailabiility
# Rattus norvegicus [28] = assay: as §1; format: functional; remark: listed apart in the source
# Rattus norvegicus [29] = organism: Rattus norvegicus; assay: % binding inhibition in rat ex vivo assay after three hours; format: functional
# Rattus norvegicus [30] = organism: Rattus norvegicus; assay: % binding inhibition in rat ex vivo assay after one hour; format: functional
# Rattus norvegicus [31] = assay: Tested for situational anxiety in rats by measuring the latency exit from a chamber after po comparison with the activity values; format: functional
structure (smiles),measurement,setting,value
CCCN(CC1CC1)c1nc(C)nc2c(-c3ccc(Cl)cc3Cl)c(C)nn12,Binding inhibition,Rattus norvegicus [1],95.4%
same,Binding inhibition,Rattus norvegicus [2],73.3%
same,Ki,[3],0.7 nM
CCCC(CCC)Nc1nc(C)nc2c(-c3ccc(Cl)cc3Cl)c(C)nn12,Binding inhibition,Rattus norvegicus [1],74.8%
same,Binding inhibition,Rattus norvegicus [2],63.9%
same,Ki,[3],1.6 nM
COCCN(CCOC)c1nc(C)nc2c(-c3ccc(Cl)cc3Cl)c(C)nn12,Binding inhibition,Rattus norvegicus [1],92.9%
same,Binding inhibition,Rattus norvegicus [2],85.4%
same,Ki,[3],1.8 nM
CCCN(CCC)c1nc(C)nc2c(-c3ccc(Cl)cc3Cl)c(C)nn12,Ki,[3],0.6 nM
COCC(COC)Nc1nc(C)nc2c(-c3ccc(Cl)cc3Cl)c(C)nn12,AUC T,Canis familiaris [4],2.27 µM·h
same,AUC,Canis familiaris [5],555 Nm.H
same,concentration at 5 min,[6],2880 nM
same,Latency to exit,Rattus norvegicus [7],680
same,half-life,[8],12.3 h
same,CL,Rattus norvegicus [9],2 kg⁻¹ h⁻¹
same,Vd,[10],27.1 L/kg
same,Binding inhibition,Rattus norvegicus [1],81.3%
same,Binding inhibition,Rattus norvegicus [2],78.2%
same,AUC,Canis familiaris [11],2.69 µM·h
same,AUC T,Rattus norvegicus [12],1.86 µM·h
same,Cmax,[13],317 nM
same,half-life,[14],34.5 h
same,Latency to exit,Rattus norvegicus [15],<482
same,half-life,[16],33.4 h
same,Tmax,[17],0.44 h
same,AUC,Rattus norvegicus [18],2.26 µM·h
same,AUC T,Canis familiaris [19],0.469 µM·h
same,bioavailability,[20],36.7%
same,half-life,[21],16.5 h
same,concentration at 5 min,[22],1370 nM
same,Latency to exit,Rattus norvegicus [23],<426 and <286
same,Vd,[24],21.5 L/kg
same,clearance,[25],15.8 mL/min/kg
same,Tmax,[26],0.88 h
same,bioavailability,[27],49.7%
same,Latency to exit,Rattus norvegicus [28],<408
same,Ki,[3],1.7 nM
CCCCN(CC)c1nc(C)nc2c1c(C)cn2-c1c(C)cc(C)cc1C.Cl,Binding inhibition,Rattus norvegicus [1],<10%
same,Binding inhibition,Rattus norvegicus [2],<10%
CCCCC(CC)Nc1nc(C)nc2c(-c3ccc(Cl)cc3Cl)c(C)nn12 (centres undefined),Ki,[3],1.6 nM
CCC(COC)Nc1nc(C)nc2c(-c3ccc(Cl)cc3Cl)c(C)nn12 (centres undefined),Ki,[3],1.9 nM
Cc1nc(N(C)c2ccccc2)n2nc(C)c(-c3ccc(Cl)cc3Cl)c2n1,Ki,[3],44.5 nM
CCCCN(CC)c1nc(C)nc2c(-c3ccc(Cl)cc3Cl)c(C)nn12,Binding inhibition,Rattus norvegicus [29],82.9%
same,Binding inhibition,Rattus norvegicus [30],73.2%
same,Ki,[3],0.4 nM
CCCC(CC)Nc1nc(C)nc2c(-c3ccc(Cl)cc3Cl)c(C)nn12 (centres undefined),Binding inhibition,Rattus norvegicus [1],67%
same,Binding inhibition,Rattus norvegicus [2],46.6%
same,Ki,[3],1.2 nM
CCC(CC)Nc1nc(C)nc2c(-c3ccc(Cl)cc3Cl)c(C)nn12,Binding inhibition,Rattus norvegicus [1],71.8%
same,Binding inhibition,Rattus norvegicus [2],65.9%
same,Ki,[3],1.1 nM
CCOCC(COCC)Nc1nc(C)nc2c(-c3ccc(Cl)cc3Cl)c(C)nn12,Ki,[3],6.2 nM
CNC1=Nc2ccc(Cl)cc2C(c2ccccc2)=[N+]([O-])C1 [CHLORDIAZEPOXIDE],Latency to exit,Rattus norvegicus [31],<216

# Source: ChEMBL document CHEMBL1133121, “4-(1,3-Dimethoxyprop-2-ylamino)-2,7-dimethyl-8-(2, 4-dichlorophenyl)pyrazolo[1,5-a]-1,3,5-triazine: a potent, orally bioavailable CRF(1) receptor antagonist” (J Med Chem, 2000)
